Tests used:
pancreatin = test system: pancreatin
Procedure: Both media are from the company Biorelevant®, Ltd. in Great Britain. In addition, in some experiments porcine pancreas is added (Panzytrat® 40,000, Fa. Allergan).
The pancreatin is used in the form of the commercially available product Panzytrat® 40,000 from the Allergan company. The whole mixture is stirred on a hotplate at 50° C.; the course of the reaction is determined and followed by continuous recording of the acid number over time.

[1] = even if several grams are taken; cited from earlier work

cleavage by pancreatin (pancreatin)	Compound	duration of ketosis [1]
cleaved by pancreatin	3-acetylacetobutyric acid di-diglycerol ester [3-acetylaceto-BHB di-diglycerol ester]	–
cleaved by pancreatin	3-acetylacetobutyric acid mono-diglycerol ester [3-acetylaceto-BHB mono-diglycerol ester]	–
cleaved by pancreatin	3-acetylacetobutyric acid tri-diglycerol ester [3-acetylaceto-BHB tri-diglycerol ester]	–
–	CC(O)CC(=O)O (stereo not shown) [3-hydroxybutyric acid]	three to four
